In patent US9556114B2, “Fluorinated 2-amino-4-(benzylamino)phenylcarbamate derivatives” (SciFluor Life Sciences, Inc., priority 2012, dated 2017):
Several values for one entry are separate records, joined by “and”; a condition that tells them apart may be missing. Equal values may be shown once.

Target: T1, cloned KCNQ2/3 potassium channels (encoded by the human KCNQ2/3 gene and expressed in HEK293 cells) (Homo sapiens, UniProt O43525+O43526)
T1 construct: expressed in transfected cells; host or cells: HEK293 cells
Experiment: Assessment of KCNQ2/3 channel activation activity, QPatch HT automatic parallel patch clamp
Assay type: cell-based
Conditions: for KCNQ2/3 activation activity compared with ezogabine: single concentration (0.1 μM); for Mean % KCNQ2/3 Activation: 5 min exposure, room temperature, HEK293 cells; for Individual Data Points (% Activation): single cell values
Procedure: The in vitro effects of ezogabine and Compound 1A on cloned KCNQ2/3 potassium channels (encoded by the human KCNQ2/3 gene and expressed in HEK293 cells) were evaluated at room temperature using the QPatch HT® (Sophion Bioscience A/S, Denmark), an automatic parallel patch clamp system. Each test article was evaluated at 0.01, 0.1, 1, 10 and 100 μM with each concentration tested in at least two cells (n≧2). The duration of exposure to each test article concentration was 5 minutes.
The baseline for each recording was established using a 5-10 minute vehicle application (HBPS+0.3% DMSO). A single test article concentration was applied for a period of 5 minutes after the vehicle, followed by a 3 minute application of 30 μM flupirtine. Each recording ended with a supramaximal dose of 30 μM linopirdine. The % activation was calculated using the following equation by using leak subtracted responses: […]

Structure (SMILES)	KCNQ2/3 activation activity compared with ezogabine	Mean % KCNQ2/3 Activation (0.01 μM)	Mean % KCNQ2/3 Activation (0.1 μM)	Mean % KCNQ2/3 Activation (1 μM)	Mean % KCNQ2/3 Activation (10 μM)	Mean % KCNQ2/3 Activation (100 μM)	also measured
CCOC(=O)Nc1c(N)cc(NCc2ccc(F)cc2)cc1F [Compound 2A, ethyl(2-amino-6-fluoro-4-((4-fluorobenzyl)amino)phenyl)carbamate]	equivalent in activity to ezogabine						
CCOC(=O)Nc1ccc(NCc2ccc(F)cc2)cc1N [ezogabine, ethyl N-[2-amino-4-[(4-fluorophenyl)methylamino]phenyl]carbamate, reference compound]		6.6%	40.6%	94.4%	132.0%	104.1%	Individual Data Points (% Activation) (0.01 μM): 2.1% and 11.1%; Individual Data Points (% Activation) (0.1 μM): 49.1% and 32.2%; Individual Data Points (% Activation) (1 μM): 93.6% and 95.2%; Individual Data Points (% Activation) (10 μM): 123.7% and 140.4%; Individual Data Points (% Activation) (100 μM): 93.8% and 101.9% and 116.5%
CCOC(=O)Nc1cc(F)c(NCc2ccc(F)cc2)cc1N [Compound 3A, ethyl(2-amino-5-fluoro-4-((4-fluorobenzyl)amino)phenyl)carbamate]	equivalent in activity to ezogabine						
CCOC(=O)Nc1ccc(NCc2ccc(F)cc2)c(F)c1N [Compound 1A, ethyl(2-amino-3-fluoro-4-((4-fluorobenzyl)amino)phenyl)carbamate]		31.4%	62.9%	125.5%	119.9%	61.9%	Individual Data Points (% Activation) (0.01 μM, listed as Compound lA): 35.9% and 26.9%; Individual Data Points (% Activation) (0.1 μM, listed as Compound lA): 98.9% and 43.3% and 46.6%; Individual Data Points (% Activation) (1 μM, listed as Compound lA): 123.5% and 127.6%; Individual Data Points (% Activation) (10 μM, listed as Compound lA): 119.7% and 120.1%; Individual Data Points (% Activation) (100 μM, listed as Compound lA): 56.6% and 67.3%
CCOC(=O)Nc1cc(F)c(NCc2ccc(F)cc2)c(F)c1N [Compound 4A, ethyl(2-amino-3,5-difluoro-4-((4-fluorobenzyl)amino)phenyl)carbamate]	equivalent in activity to ezogabine						
